Results on two compounds are retold here after patent publication US20230405002A1, “COMBINATIONS OF DIACYLGLYCEROL ACYLTRANSFERASE 2 INHIBITORS AND ACETYL-COA CARBOXYLASE INHIBITOR” (Pfizer Inc., priority 2020, published 2023).

SMILES strings stand for the structures. Converted amounts (≈) assume the structure as drawn. Bounds are passed on as bounds.

As a reminder, the IC50 is the midpoint of a concentration-inhibition curve. Low values mean greater potency in that assay, high ones weaker potency in that assay. A word on the solubility: it is the concentration that dissolves in the medium under given conditions. Low readings indicate little dissolved substance, high ones much dissolved substance.

In one data set the test system is human hepatocytes. Nature of the data set: High throughput intrinsic clearance in human hepatocytes. The settings on record: high throughput human hepatocyte assay, 1 μM.
For the next data set, the system named is human liver microsomes. Nature of the data set: Intrinsic clearance in human liver microsomes. The settings on record: human liver microsome assay, 1 μM. Background: Liver microsomes are a subcellular fraction often used to study metabolism.
Another data set has as its target human DGAT2 (hDGAT2) (Homo sapiens (Human), UniProt Q96PD7). Nature of the data set: In vitro DGAT2 assay, determination of IC50 values. Type of data set: biochemical. The conditions noted are these: geometric mean; hDGAT2 membrane fraction.
Data set [1] concerns the target DGAT2 in human hepatocytes (Homo sapiens (Human), UniProt Q96PD7). Nature of the data set: Determination of IC50 values for DGAT2 inhibitors in human hepatocytes. Type of data set: cell-based. The settings on record: geometric mean; cryopreserved human hepatocytes, DGAT1 inhibitor 3 μM present. The method, then:
For evaluation of the effects of DGAT2 inhibitors in a cell-based setting, cryopreserved human hepatocytes (Lot DOO, Celsis, Baltimore, MD) were thawed and plated onto type I collagen-coated plates according to the manufacturer's instructions. After 18 hours overnight recovery period, the cells were overlayed with media containing 250 μg/mL Geltrex Basement Membrane Matrix (Thermo Fisher). The following day, media was aspirated and replaced with serum-free Williams Media E (Thermo Fisher) containing 400 μM sodium dodecanoate (Sigma-Aldrich, St. Louis, MO) and 2 mM GlutaMAX (Thermo Fisher). […] DGAT2 inhibitors were then added to the desired final concentration. After a 15 minute preincubation, 0.2 μCi [^14C(U)]-glycerol (Perkin Elmer) was added to each well followed by a 3 hour incubation. At this point the media was removed, and the cells lysed via orbital shaking in isopropyl alcohol: tetrahydrofuran (9:1) for 15 minutes prior to centrifugation at 3000 rpm for 10 minutes. Radiolabeled lipids were resolved using a solvent system by thin layer chromatography with the solvent consisting of hexanes: diethyl ether: glacial acetic acid (75:23:2, v/v/v). After separation, radiolabeled lipids were visualized using the Typhoon 9500 phosphorimaging system (GE). The half maximal inhibitory concentrations (IC50 values) were determined by nonlinear regression analysis of the % inhibition dose response curve using GraphPad Prism (GraphPad Software, Inc., La Jolla, CA).
Table 12 below provides the IC50 values of selected Examples for inhibition of DGAT2 in human hepatocytes in accordance with the above-described assay. Results are reported as geometric mean IC50 values, with the number of replicates (n) shown.

Data set [2] in a line: Determination of pKa (capillary electrophoresis). The settings on record: most basic pKa, mean.
In data set [3] the test system is Western diet fed Sprague-Dawley rats. The data set is described as follows: In vivo effects of DGAT2 inhibitors on plasma and hepatic triglyceride levels (rat western diet model). The conditions noted are these: oral 3, 10, 30, 100 mg/kg BID 7 days; dose dependent; vs western diet vehicle. From the text: The rat western diet model was utilized to assess the effects of DGAT2 inhibitor treatment on plasma triglyceride production and hepatic triglyceride content in vivo. Male Sprague-Dawley rats were housed under standard laboratory conditions on a 12-hour light, 12-hour dark cycle (lights on at 06:00). Two weeks prior to study start animals were placed on a high-fat, high sucrose, high-cholesterol diet (D12079b, provided by Research Diets, New Brunswick, NJ). This diet provides ˜43% of kilocalories from carbohydrate and ˜41% of kilocalories from fat. Example 4 was administered orally as a solution (10 mL/kg dosing volume) in 0.5% methylcellulose in deionized water, pH 7.0-7.5 (methylcellulose was obtained from Sigma-Aldrich, St. Louis, MO). […] Plasma TG levels were determined using a Roche Hitachi Chemistry analyzer according to the manufacturer's instructions (Roche Diagnostics Corporation, Indianapolis, IN) and data was analyzed using GraphPad Prism (GraphPad Software, Inc., La Jolla, CA). […] The triglyceride assay was performed through absorbance and reported as milligrams per deciliter. […]
FIG. 29 plots the multiple dose effects of Example 4 on Plasma Triglyceride in Western Diet Fed Sprague-Dawley Rats where plasma triglyceride levels were determined from blood drawn from the lateral tail vein 2-hours following the final dose of Example 4. […]

A short description of data set [4]: Thermodynamic solubility in various media. The format is physicochemical. The method, then:
The solubility of active pharmaceutical ingredients is an important characteristic in determining biological performance and ease of formulation during drug development, with high solubility being preferred (Klein, S. 2010, The AAPS Journal, 12, 397-406; Di, L., et al 2012, Drug Disc. Today, 17. 486-495). A test sample of crystalline solid (˜7 mg) was combined in a vial with 1 mL of the relevant buffer solution and the mixture vortexed to combine. If the solid dissolved completely, additional solid was added with vortexing until a saturated solution was obtained. The saturated solution/solid mixture was capped and subjected to temperature cycling as follows: 1 min at 25° C.; 8 h at 40° C.; 5 h at 15° C. and 12 h at 25° C. The mixture was filtered in a centrifugal filtration device (0.22 μm PVDF filter, MilliporeSigma, Milwaukee, WI) at 13,000 rpm and the concentration of the test compound in the filtrate was determined by HPLC/UPLC with reference to a three point standard curve. Phosphate buffered saline (PBS, pH 6.8, 50 mM phosphate buffer, 250 mM NaCl). Simulated gastric fluid (SGN pH 1.2, USP recipe). […]

human DGAT2 (hDGAT2), sequence (Q96PD7 whole entry): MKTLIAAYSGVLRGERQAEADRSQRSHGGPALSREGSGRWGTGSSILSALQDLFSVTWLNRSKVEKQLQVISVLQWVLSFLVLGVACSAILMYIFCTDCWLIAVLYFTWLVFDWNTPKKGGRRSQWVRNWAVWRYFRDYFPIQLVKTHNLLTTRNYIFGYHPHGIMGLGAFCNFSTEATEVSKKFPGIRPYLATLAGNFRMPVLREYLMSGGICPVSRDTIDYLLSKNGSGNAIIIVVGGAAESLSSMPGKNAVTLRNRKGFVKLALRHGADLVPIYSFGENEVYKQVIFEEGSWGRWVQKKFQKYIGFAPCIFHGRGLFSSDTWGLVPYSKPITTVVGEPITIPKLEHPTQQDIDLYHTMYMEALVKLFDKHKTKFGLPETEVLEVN
DGAT2 in human hepatocytes, sequence (Q96PD7 whole entry): as above
Procedure for human liver microsomes: The high throughput human microsomal stability assay was performed in a 384-well format (Di, L., et al. 2012, Eur. J. Med. Chem., 57, 441-448). All liquid handling and incubation were conducted with a Biomek FX (Beckman Coulter, Inc., Indianapolis, IN), equipped with one 3-position Mecour heated deck positions. Pooled human liver microsomes of 50 donors (Lot: HLM-103) were purchased from BD Biosciences (Bedford, MA). Each incubation contained test compound (1 μM), human liver microsomes (0.25 μM CYP protein equivalent to 0.806 mg/mL protein concentration), NADPH 20.9 mM, MgCl2 (3.3 mM) and potassium phosphate buffer (100 mM at pH 7.4). The final reaction volume was 45 μL containing 0.1% DMSO. The incubations were conducted at 37° C. At various time points (e.g. 1, 4, 7, 12, 20, 25, 45 and 60 min), cold acetonitrile with mass spectrometry (MS) internal standard (Example 39A, WO1999/57125) was added to quench the reaction. The plates were centrifuged at 3000 rpm for 1 min at 4° C. […] The plates were sealed and subsequently analyzed using LC-MS/MS. Control plates were prepared in the same manner without adding the NADPH cofactor to monitor any non-CYP/FMO catalyzed decline. […] The data are presented as the mean+/− standard deviation, with the number of replicates (n) shown.

As to `CCOc1cccnc1Oc1cncc(-c2ncc(C(=O)N[C@@H]3CNCC[C@@H]3F)cn2)c1.O=C(O)C(F)(F)F.O=C(O)C(F)(F)F` [Example 3, 2-{5-[(3-Ethoxypyridin-2-yl)oxy]pyridin-3-yl}-N-[(3R,4S)-4-fluoropiperidin-3-yl]pyrimidine-5-carboxamide, bis(trifluoroacetate) salt], the “CLint (+/− Std Dev)” value in the data set with human hepatocytes is listed as <1.9 +/− 0.35 μL/min/10^6 cells. Also, the “CLint (+/− STD Dev)” value with human liver microsomes was less than 7 µL/min/mg. In addition, the results for the IC50 (against human DGAT2 (hDGAT2); in data set [1]) were 0.04 µM and 0.023 µM, respectively. In addition, the “Basic pKa” value in data set [2] worked out at 8.1.
`CCOc1cccnc1Oc1cncc(-c2ncc(C(=O)N[C@@H]3CNC[C@@H](F)C3)cn2)c1` [Example 4, 2-{5-[(3-Ethoxypyridin-2-yl)oxy]pyridin-3-yl}-N-[(3S,5S)-5-fluoropiperidin-3-yl]pyrimidine-5-carboxamide]: in data set [3], the “reduction in liver triglycerides” value is given as “up to 48%”. In data set [3], the “reduction in plasma triglycerides” value is not above 70%. In addition, the IC50 against human DGAT2 (hDGAT2) was 0.01 µM; in data set [1] it was 0.011 µM. The solubility at 25 h was 1210 µg/mL (≈ 2760 µM) in data set [4] (FaSSIF (as printed, 25 °C, thermodynamic from solid), FaSSIF pH 6.8 (second line so printed; method also names FeSSIF)) and 700 µg/mL (≈ 1600 µM) in data set [4] (fasted state simulated intestinal fluid (FaSSIF), 25 °C, thermodynamic from solid, FaSSIF pH 6.8 (first line)).
